Laboratory results reported in ChEMBL document CHEMBL1201862, “PubChem BioAssay data set” (2004).
The source made the active and inactive calls.

Tests used:
Estrogen receptor = biological target: T1, Estrogen receptor (Homo sapiens, UniProt P03372);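 note: potency for inhibiting coactivator peptide recruitment to the receptor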
T1 sequence (P03372 whole entry): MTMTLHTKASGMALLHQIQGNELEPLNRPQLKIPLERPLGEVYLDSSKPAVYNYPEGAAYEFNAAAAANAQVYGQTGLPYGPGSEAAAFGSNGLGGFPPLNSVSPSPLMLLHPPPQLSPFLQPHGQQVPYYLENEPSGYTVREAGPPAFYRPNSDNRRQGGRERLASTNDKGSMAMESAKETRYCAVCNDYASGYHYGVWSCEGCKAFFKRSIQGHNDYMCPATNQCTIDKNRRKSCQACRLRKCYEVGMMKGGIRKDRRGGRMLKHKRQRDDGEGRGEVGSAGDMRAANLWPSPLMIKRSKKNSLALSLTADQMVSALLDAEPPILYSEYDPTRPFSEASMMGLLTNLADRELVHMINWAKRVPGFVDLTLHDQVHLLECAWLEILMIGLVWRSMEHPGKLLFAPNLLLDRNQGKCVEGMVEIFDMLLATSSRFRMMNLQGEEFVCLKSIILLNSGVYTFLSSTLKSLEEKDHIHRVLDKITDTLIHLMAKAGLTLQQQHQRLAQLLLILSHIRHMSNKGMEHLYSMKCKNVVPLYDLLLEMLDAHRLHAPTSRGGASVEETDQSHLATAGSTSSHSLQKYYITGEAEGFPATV

[1] = biological target: Scavenger receptor class B member 1 (Mus musculus, UniProt Q61009); assay: inhibitors of SR-BI mediated HDL lipid uptake, dose response, ldlA[mSR-BI] cells, fluorescence, cherry pick (AID 493194); type: functional, cell-based;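 note: cellular uptake of fluorescent DiI-labeled HDL measured as cell fluorescence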
Scavenger receptor class B member 1, sequence (Q61009 whole entry): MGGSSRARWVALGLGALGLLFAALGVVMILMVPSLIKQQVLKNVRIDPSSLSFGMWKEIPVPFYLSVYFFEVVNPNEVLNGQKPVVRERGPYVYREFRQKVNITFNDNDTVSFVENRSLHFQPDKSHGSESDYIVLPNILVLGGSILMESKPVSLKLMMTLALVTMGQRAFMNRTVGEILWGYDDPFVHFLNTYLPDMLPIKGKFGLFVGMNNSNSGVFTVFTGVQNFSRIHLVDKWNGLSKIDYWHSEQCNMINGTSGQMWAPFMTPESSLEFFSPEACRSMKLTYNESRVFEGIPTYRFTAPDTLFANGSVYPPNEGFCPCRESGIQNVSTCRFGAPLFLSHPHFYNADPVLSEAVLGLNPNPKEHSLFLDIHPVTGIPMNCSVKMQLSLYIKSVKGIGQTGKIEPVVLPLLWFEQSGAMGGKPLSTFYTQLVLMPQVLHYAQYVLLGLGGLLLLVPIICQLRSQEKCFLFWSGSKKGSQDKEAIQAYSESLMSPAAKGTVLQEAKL

Estrogen receptor beta [2] = biological target: T2, Estrogen receptor beta (Homo sapiens, UniProt Q92731);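 note: recombinant ER-beta bound to coactivator SRC1 peptide in presence of estradiol agonist; inhibitors block coactivator peptide binding and lower the FRET signal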
T2 sequence (Q92731 whole entry): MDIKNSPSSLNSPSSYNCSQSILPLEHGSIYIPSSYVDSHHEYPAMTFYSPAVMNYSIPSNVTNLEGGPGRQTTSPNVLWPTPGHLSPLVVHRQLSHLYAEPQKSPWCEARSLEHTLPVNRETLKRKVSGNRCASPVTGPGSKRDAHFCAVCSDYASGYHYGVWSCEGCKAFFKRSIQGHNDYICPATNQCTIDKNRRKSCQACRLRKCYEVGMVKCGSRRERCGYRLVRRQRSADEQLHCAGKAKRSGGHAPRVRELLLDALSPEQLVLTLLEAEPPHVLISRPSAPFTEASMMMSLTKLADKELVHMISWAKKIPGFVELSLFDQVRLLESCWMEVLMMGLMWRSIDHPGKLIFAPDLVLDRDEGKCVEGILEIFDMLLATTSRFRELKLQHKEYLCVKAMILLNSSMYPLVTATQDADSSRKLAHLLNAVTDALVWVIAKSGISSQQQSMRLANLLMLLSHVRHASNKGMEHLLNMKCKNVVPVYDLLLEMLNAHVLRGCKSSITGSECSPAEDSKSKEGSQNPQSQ

[3] = cytotoxicity in HEK-293T cells, dose response, cytotoxicity control for TCR NF-kB inhibitor project, luminescence, T-cell screen hits (AID 489026); type: functional, cell-based;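 note: cells exposed to compound about 14 hours before the viability readout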
Estrogen receptor beta [4] = biological target: T2, Estrogen receptor beta; assay: ERβ–SRC-3 coactivator interaction inhibitors, confirmation, orthogonal assay, biochemical, ELISA, streptavidin-HRP readout (AID 1060)
[5] = biological target: Cyclin-dependent kinase 5/CDK5 activator 1 (Homo sapiens, UniProt Q00535); assay: CDK5/p35 kinase inhibitors, dose response, biochemical, cherry-picked samples, set 2 (AID 504545)
Cyclin-dependent kinase 5/CDK5 activator 1, sequence (Q00535 whole entry): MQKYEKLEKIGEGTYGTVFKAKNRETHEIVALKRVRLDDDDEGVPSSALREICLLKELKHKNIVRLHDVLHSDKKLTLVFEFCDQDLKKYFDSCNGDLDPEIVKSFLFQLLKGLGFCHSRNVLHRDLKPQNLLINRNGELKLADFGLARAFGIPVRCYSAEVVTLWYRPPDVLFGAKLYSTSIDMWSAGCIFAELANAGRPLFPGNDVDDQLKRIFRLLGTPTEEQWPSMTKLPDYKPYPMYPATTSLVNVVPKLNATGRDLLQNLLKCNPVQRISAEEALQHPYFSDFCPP
Cyclin-dependent kinase 5/CDK5 activator 1, sequence (Q15078 whole entry, further chain): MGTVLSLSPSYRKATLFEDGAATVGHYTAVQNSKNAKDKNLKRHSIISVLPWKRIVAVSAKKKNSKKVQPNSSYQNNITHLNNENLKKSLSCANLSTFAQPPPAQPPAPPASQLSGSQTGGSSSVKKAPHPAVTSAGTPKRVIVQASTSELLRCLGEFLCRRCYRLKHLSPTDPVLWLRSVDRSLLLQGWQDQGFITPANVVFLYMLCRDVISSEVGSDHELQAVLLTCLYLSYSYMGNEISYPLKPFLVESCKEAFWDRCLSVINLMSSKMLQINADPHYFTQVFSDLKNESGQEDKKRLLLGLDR

Nonstructural protein 1 = Nonstructural protein 1 (Influenza A virus, UniProt Q194T2); type: functional, Influenza A virus (A/California/07/2009(H1N1))
Nonstructural protein 1, sequence (Q194T2 whole entry): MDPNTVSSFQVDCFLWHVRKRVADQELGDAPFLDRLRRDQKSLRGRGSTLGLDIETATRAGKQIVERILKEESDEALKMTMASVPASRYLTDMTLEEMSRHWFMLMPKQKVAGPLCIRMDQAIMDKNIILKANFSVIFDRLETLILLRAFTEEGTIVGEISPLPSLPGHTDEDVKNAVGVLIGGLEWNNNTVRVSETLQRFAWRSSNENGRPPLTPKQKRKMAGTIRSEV

[6] = biological target: UDP-galactopyranose mutase (Mycobacterium tuberculosis, UniProt P9WIQ1); assay: Inhibitors of Mycobacterium tuberculosis UDP-galactopyranose mutase (UGM) enzyme Measured in Biochemical System Using Plate Reader - 2105-02_Inhibitor_Dose_CherryPick_Activity. [Related pubchem assays (depositor defined):AID504439]
ORF 73 = ORF 73 (Human herpesvirus 8, UniProt O40947); assay: inhibitors of C-LANA binding to LBS DNA, dose response, biochemical, fluorescence polarization, cherry-picked samples (AID 504725); parameters: species or system Human gammaherpesvirus 8;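 note: fluorescence polarization of a labeled DNA duplex reporting LANA DNA binding; potency is for inhibitors that block LANA binding to the DNA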
HeLa = assay: HeLa cell cytotoxicity, dose response, cytotoxicity control, 24 h, cherry-picked samples (AID 504726); type: functional, cell-based; settings: Homo sapiens;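 note: potency for cytotoxicity as loss of luminescence signal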
Keap1/Nrf2 = Keap1/Nrf2 (Homo sapiens, UniProt Q14145); assay: Keap1-Nrf2 protein-protein interaction inhibitors, dose response, biochemical, fluorescence polarization, cherry-picked samples (AID 588683)
[7] = biological target: Cystic fibrosis transmembrane conductance regulator/Golgi-associated PDZ and coiled-coil motif-containing protein (Homo sapiens, UniProt P13569+Q9HD26); assay: CAL PDZ peptide-binding inhibitors, dose response, biochemical, fluorescence polarization, Cerulean-tagged CAL PDZ, cherry-picks (AID 504773)
Cystic fibrosis transmembrane conductance regulator/Golgi-associated PDZ and coiled-coil motif-containing protein, sequence (P13569 whole entry, other chains not shown): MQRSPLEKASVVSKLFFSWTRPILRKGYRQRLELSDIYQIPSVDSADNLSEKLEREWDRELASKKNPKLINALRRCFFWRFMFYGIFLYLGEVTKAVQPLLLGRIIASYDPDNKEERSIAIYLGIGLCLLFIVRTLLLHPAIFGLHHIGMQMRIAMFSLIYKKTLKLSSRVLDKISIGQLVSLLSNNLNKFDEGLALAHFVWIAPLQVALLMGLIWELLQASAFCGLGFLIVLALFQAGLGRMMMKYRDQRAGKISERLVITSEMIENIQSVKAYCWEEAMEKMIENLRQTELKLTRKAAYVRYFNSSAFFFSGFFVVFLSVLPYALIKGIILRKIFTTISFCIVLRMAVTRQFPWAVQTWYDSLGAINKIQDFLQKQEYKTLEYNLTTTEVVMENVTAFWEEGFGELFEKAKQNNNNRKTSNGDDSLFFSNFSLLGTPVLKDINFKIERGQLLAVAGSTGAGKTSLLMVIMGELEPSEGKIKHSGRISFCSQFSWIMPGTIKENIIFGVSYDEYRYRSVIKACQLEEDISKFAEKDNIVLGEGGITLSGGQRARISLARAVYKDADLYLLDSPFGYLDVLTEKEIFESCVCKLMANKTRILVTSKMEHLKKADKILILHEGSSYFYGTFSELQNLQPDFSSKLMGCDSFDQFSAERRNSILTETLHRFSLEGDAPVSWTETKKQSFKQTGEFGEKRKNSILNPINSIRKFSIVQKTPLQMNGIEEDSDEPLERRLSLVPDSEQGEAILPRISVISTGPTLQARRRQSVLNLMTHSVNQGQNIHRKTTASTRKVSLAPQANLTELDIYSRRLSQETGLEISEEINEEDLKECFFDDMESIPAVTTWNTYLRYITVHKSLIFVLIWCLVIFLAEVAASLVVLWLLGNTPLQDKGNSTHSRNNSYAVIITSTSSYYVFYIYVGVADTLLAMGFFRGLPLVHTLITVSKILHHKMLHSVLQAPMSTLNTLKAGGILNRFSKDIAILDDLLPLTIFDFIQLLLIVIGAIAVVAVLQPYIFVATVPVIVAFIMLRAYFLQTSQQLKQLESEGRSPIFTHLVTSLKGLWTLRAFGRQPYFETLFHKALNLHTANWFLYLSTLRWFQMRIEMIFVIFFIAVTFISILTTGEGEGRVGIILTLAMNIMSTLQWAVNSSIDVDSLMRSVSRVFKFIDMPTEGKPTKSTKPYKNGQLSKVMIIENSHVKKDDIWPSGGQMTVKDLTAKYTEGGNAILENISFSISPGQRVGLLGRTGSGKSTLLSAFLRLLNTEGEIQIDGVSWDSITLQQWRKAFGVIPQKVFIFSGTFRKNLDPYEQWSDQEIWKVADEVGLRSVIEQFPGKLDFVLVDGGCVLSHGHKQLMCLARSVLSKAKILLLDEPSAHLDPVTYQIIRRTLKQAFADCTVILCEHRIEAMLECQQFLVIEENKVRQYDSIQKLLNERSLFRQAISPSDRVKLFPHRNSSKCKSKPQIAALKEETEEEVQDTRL

[8] = biological target: Signal transducer and activator of transcription 3 (Homo sapiens, UniProt P40763); assay: STAT3 activators, late-stage profile, late-stage follow-up, cell-based, STAT1 reporter, BCL3 qPCR, cytotoxicity, panel member STAT3 Activation (AID 2049)
Signal transducer and activator of transcription 3, sequence (P40763 whole entry): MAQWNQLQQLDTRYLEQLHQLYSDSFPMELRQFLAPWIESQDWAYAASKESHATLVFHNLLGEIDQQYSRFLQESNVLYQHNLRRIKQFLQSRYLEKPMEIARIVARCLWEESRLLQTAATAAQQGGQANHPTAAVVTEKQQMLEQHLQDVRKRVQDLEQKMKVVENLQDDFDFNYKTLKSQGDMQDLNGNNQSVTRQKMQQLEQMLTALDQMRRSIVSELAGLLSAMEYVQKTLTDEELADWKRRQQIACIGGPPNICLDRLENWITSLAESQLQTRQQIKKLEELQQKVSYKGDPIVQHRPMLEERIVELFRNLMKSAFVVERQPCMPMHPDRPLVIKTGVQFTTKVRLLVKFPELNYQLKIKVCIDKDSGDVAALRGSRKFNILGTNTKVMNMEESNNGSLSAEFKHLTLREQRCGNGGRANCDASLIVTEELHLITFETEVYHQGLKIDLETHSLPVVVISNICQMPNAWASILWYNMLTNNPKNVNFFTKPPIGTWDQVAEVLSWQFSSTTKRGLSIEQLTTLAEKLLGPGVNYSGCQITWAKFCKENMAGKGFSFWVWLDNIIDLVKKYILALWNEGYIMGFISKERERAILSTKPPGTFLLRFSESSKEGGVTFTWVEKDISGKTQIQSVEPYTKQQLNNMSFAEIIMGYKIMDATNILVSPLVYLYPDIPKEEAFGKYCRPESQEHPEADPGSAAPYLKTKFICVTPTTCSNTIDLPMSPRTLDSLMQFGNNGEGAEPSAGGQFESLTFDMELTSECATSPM

Mu-type opioid receptor = Mu-type opioid receptor (Homo sapiens, UniProt P35372); assay: SAR Analysis of Antagonists of the MOR Receptor using an Image-Based Assay - Set 3. [Related pubchem assays (depositor defined):AID1777, AID1785, AID1786, AID1966, AID2133, AID2136, AID2284, AID2285, AID2420]; type: functional
Mu-type opioid receptor, sequence (P35372 whole entry): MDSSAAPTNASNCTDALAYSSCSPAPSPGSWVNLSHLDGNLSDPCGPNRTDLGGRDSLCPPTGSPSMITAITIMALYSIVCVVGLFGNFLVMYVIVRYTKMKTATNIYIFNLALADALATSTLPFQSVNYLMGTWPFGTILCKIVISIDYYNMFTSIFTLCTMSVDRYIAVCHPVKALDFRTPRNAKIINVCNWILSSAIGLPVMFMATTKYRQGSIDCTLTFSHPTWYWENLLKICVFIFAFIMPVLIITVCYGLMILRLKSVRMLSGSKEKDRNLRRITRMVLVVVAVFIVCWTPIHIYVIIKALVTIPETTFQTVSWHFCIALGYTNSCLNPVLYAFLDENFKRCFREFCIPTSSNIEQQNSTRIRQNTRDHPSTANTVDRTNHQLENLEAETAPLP

[9] = biological target: Delta-type opioid receptor (Homo sapiens, UniProt P41143); assay: SAR Analysis of Antagonists of the DOR Receptor using an Image-Based Assay - Set 3. [Related pubchem assays (depositor defined):AID1777, AID1785]; type: functional;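 note: U2OS cells expressing DOR1 and beta-arrestin GFP stimulated with 100 nM SNC80; imaging of GFP-tagged beta-arrestin moving into spots after receptor activation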
[10] = biological target: T3, Kappa-type opioid receptor (Homo sapiens, UniProt P41145); assay: SAR analysis of Antagonists of the Kappa Opioid Receptor (KOR) using an Image-Based Assay - Set 4. [Related pubchem assays (depositor defined):AID1777, AID1785]; type: functional
T3 sequence (P41145 whole entry): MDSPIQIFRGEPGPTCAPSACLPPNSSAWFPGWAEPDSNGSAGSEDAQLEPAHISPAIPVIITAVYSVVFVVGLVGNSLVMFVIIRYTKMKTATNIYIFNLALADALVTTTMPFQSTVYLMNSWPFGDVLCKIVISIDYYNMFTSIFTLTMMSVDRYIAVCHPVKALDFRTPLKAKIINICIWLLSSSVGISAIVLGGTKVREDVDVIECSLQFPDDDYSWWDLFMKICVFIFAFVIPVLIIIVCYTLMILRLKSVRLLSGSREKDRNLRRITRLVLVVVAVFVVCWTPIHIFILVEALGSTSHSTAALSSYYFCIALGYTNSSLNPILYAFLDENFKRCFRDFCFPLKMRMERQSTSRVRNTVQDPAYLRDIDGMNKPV

[11] = biological target: T3, Kappa-type opioid receptor; assay: SAR analysis of small molecule antagonists of the kappa opioid receptor via a luminescent beta-arrestin assay - Set 4. [Related pubchem assays (depositor defined):AID1777, AID1778, AID1785, AID1786, AID1966, AID2133, AID2136, AID2285]; type: functional
[12] = biological target: T3, Kappa-type opioid receptor; assay: SAR analysis of small molecule antagonists of the kappa opioid receptor via a luminescent beta-arrestin assay - Set 6. [Related pubchem assays (depositor defined):AID1777, AID1778, AID1785, AID1786, AID1966, AID2133, AID2136, AID2285]; type: functional

SMILES: Cc1c(C(=O)OCc2ccccc2)[nH]c2c1C(=O)CC(c1ccco1)C2 (stereo not drawn)
- IC50 (Estrogen receptor): 23 µM (active)
- AC50 [1]: 0.258 µM (active)
- IC50 (Estrogen receptor beta [2]): 15.1 µM (active)
- IC50 [3]: > 80 µM (inactive)
- IC50 (Estrogen receptor beta [4]): 9.51 µM (not active)

SMILES: COc1ccc2nc3c(cc2c1)c(NC(=O)C1CCCO1)nn3CC(C)C (stereo not drawn)
- AC50 [5]: 31.2 µM (active)

SMILES: CCNc1ccc2noc3c2c1C(=O)c1ccccc1-3
- IC50 (Nonstructural protein 1): 62 µM (active)
- AC50 [6]: 0.609 µM (active)
- AC50 (ORF 73): 1.03 µM (active)
- AC50 (HeLa): 42.9 µM (active)
- AC50 (Keap1/Nrf2): 0.866 µM (active)
- AC50 [7]: 4.08 µM (active)

SMILES: COc1cc(NC(=O)c2cc(C)on2)c(OC)cc1Cl
- EC50 [8]: 6.98 µM (active)

SMILES: CC(C)N(CCNC(=O)c1ccc(CNS(=O)(=O)c2ccc(-c3ccccc3)cc2)cc1)Cc1ccccc1
- IC50 (Mu-type opioid receptor): > 32 µM (inactive)
- IC50 [9]: > 32 µM (inactive)
- IC50 [10]: 0.432 µM (active)
- IC50 [11]: 1.33 µM (active)
- IC50 [12]: > 20 µM (inactive)
